Reference: article PMC12115217, “3,3′-((3-Hydroxyphenyl)azanediyl)dipropionic Acid Derivatives as a Promising Scaffold Against Drug-Resistant Pathogens and Chemotherapy-Resistant Cancer” (Pathogens, 2025)
In brackets after ≈: the same amount, converted by molar mass. Like-named read-outs stand apart in the source and are kept apart here.

Columns and labels:
S. aureus TCH 1516 = assay: Broth microdilution MIC, S. aureus TCH 1516; format: cell-based; details: Staphylococcus aureus
K. pneumoniae AR-0003 [1] = assay: Broth microdilution MIC, K. pneumoniae AR-0003; format: cell-based, Klebsiella pneumoniae; details: for MIC: Klebsiella pneumoniae, AR0003, read-out: minimal inhibitory concentration (MIC) K. pneumoniae AR-0003
Excerpt: (§1) The multidrug-resistant S. aureus strain TCH 1516 [USA 300-HOU-MR] was obtained from the American Type Culture Collection (ATCC, Manassas, VA, USA) (Table 1). E. faecalis AR-0671, multidrug-resistant E. coli AR-0001, K. pneumoniae AR-0003, P. aeruginosa AR-1114, and A. baumannii AR-0273 strains were acquired from the Centers for Disease Control and Prevention (CDC) AR isolate bank (Table 1). Prior to the initiation of this study, all microbial strains were stored in commercial cryopreservation systems at a temperature of −80 °C. The strains were cultivated on Columbia sheep blood agar (Becton Dickinson, Franklin Lakes, NJ, USA) or potato dextrose agar (PDA) for Candida (Becton Dickinson, Franklin Lakes, NJ, USA).
(§2) The antimicrobial activity of 3-((3-hydroxyphenyl)amino)propanoic acid derivatives was assessed by using the broth microdilution method, following the guidelines outlined by the Clinical Laboratory Standards Institute (CLSI), with modifications. In brief, the compounds were dissolved in dimethyl sulfoxide (DMSO) to attain a final concentration of 25–30 mg/mL. Vancomycin hydrochloride (MedChem express, Cat. No. HY-17362), cefazolin (MedChem express, Cat. No. HY-B1892), and meropenem (MedChem express, Cat. No. HY-13678) were used as control antimicrobial drugs and were dissolved in DMSO as described before. Dilution series were prepared in deep 96-well microplates to achieve a two-fold concentration range of 0.25, 0.5, 1, 2, 4, 8, 16, 32, and 64 µg/mL, utilizing cation-adjusted Mueller–Hinton broth (CAMHB) as the growth medium. The microplates containing the dilution series were then inoculated with fresh cultures of each tested organism to reach a final concentration of 5 × 10^4 CFU (colony-forming units) of the test organism in media containing 1% DMSO and 1× drug concentration, with a volume of 200 µL per well. Wells that were inoculated with medium containing 1% DMSO served as positive controls. Subsequently, the microplates were incubated at 35 ± 1 °C for 18 ± 2 h. Following the incubation period, the plates were examined by using a manual microplate viewer (Sensititre Manual Viewbox, ThermoFisher Scientific, Waltham, MA, USA). […] All experiments were conducted in duplicate with three technical replicates for each condition.

A. baumannii AR-0273 = assay: Broth microdilution MIC, A. baumannii AR-0273; format: cell-based, Acinetobacter baumannii; details: for MIC: Acinetobacter baumannii
Excerpt: as §1, §2

P. aeruginosa AR-1114 [2] = assay: Broth microdilution MIC, P. aeruginosa AR-1114; format: cell-based, Pseudomonas aeruginosa; details: for MIC: Pseudomonas aeruginosa, AR1114, read-out: minimal inhibitory concentration (MIC) P. aeruginosa AR-1114
Excerpt: as §1, §2

E. coli AR-0001 [3] = assay: Broth microdilution MIC, E. coli AR-0001; format: cell-based, Escherichia coli; details: for MIC: Escherichia coli, AR0001, read-out: minimal inhibitory concentration (MIC) E. coli AR-0001
Excerpt: as §1, §2

E. faecalis AR-0671 = assay: Broth microdilution MIC, E. faecalis AR-0671; format: cell-based, Enterococcus faecalis; details: for MIC: Enterococcus faecalis
Excerpt: as §1, §2

K. pneumoniae AR-0003 [4] = assay: Broth microdilution MIC, K. pneumoniae AR-0003; format: cell-based; details: Klebsiella pneumoniae, AR0003; KPC-3; CAMHB, 18 ± 2 h; read-out: minimal inhibitory concentration (MIC) K. pneumoniae AR-0003
E. coli AR-0001 [5] = assay: Broth microdilution MIC, E. coli AR-0001; format: cell-based; details: Escherichia coli, AR0001; multidrug-resistant, KPC-3; CAMHB, 18 ± 2 h; read-out: minimal inhibitory concentration (MIC) E. coli AR-0001
P. aeruginosa AR-1114 [6] = assay: Broth microdilution MIC, P. aeruginosa AR-1114; format: cell-based; details: Pseudomonas aeruginosa, AR1114; IMP-15; CAMHB, 18 ± 2 h; read-out: minimal inhibitory concentration (MIC) P. aeruginosa AR-1114
FaDu cells = assay: MTT cell viability at fixed 100 µM, FaDu cells; format: cell-based; details: 24 h, described in words (Figure 2)
Experimental: Test compounds 2–25 were dissolved in hybridoma-grade dimethyl sulfoxide (Millipore, Sigma, Burlington, MA, USA) to prepare stock solutions at concentrations of 10–25 mg/mL. […] For in vitro anticancer activity screening, the compounds were thawed at room temperature, protected from light, and the aliquots were diluted in complete cell culture media to achieve a final concentration of 100 µM and used for the in vitro assays. The cytotoxicity assays were performed in triplicate.
FaDu cells were obtained from the American Type Culture Collection (Rockville, MD, USA). HEK293 cells were kindly provided by Dr. Iliev lab at the Jill Roberts Institute for Inflammatory Bowel Disease, Weill Cornel Medicine of Cornel University (New York, NY, USA). All cells were cultivated in Dulbecco’s Modified Eagle Medium/Nutrient Mixture F-12 (DMEM/F-12) (Gibco, Waltham, MA, USA), 10% fetal bovine serum (FBS) (Gibco, Waltham, MA, USA), 100 U/mL penicillin, and 100 μg/mL streptomycin (P/S) (Gibco, Waltham, MA, USA). Culturing conditions were maintained at 37 °C in a humidified atmosphere containing 5% CO2. The culture medium was refreshed every 2–3 days, and cells were passaged upon reaching 70–80% confluence.
The in vitro inhibitory effects of the compounds were assessed by using the MTT assay. Briefly, cells were plated in 96-well plates at a density of 1 × 10⁴ cells per well. After the cells were allowed to adhere overnight at 37 °C in 5% CO₂, they were treated with compounds at a concentration of 100 µM in triplicate. Following a 20 h incubation, the MTT reagent was added, and the cells were further incubated for 4 h. The resulting formazan was solubilized in anhydrous DMSO, and absorbance was measured at 570 nm by using a microplate reader. Cell viability was calculated by using the following formula: ([AE − AB]/[AC − AB]) × 100%, where AE, AC, and AB represent the absorbance values of experimental samples, untreated controls, and blank wells, respectively. Data analysis was performed by using GraphPad Prism or QuickCalcs.

[7] = MRSA / USA300, read-out: minimal inhibitory concentration (MIC) S. aureus TCH 1516
[8] = AR0273, read-out: minimal inhibitory concentration (MIC) A. baumannii AR-0273
[9] = AR0671, read-out: minimal inhibitory concentration (MIC) E. faecalis AR-0671
[10] = MRSA / USA300, mecA MRSA isolate, USA300 lineage, CAMHB, 18 ±, read-out: minimal inhibitory concentration (MIC) S. aureus TCH 1516
[11] = AR0273, OXA-23, CAMHB, 18 ± 2 h, read-out: minimal inhibitory concentration (MIC) A. baumannii AR-0273
[12] = AR0671, CAMHB, 18 ± 2 h, read-out: minimal inhibitory concentration (MIC) E. faecalis AR-0671

| SMILES | MIC (S. aureus TCH 1516; [7]) | MIC (K. pneumoniae AR-0003 [1]) | MIC (A. baumannii AR-0273; [8]) | MIC (P. aeruginosa AR-1114 [2]) | MIC (E. coli AR-0001 [3]) | MIC (E. faecalis AR-0671; [9]) | MIC (S. aureus TCH 1516; [10]) | MIC (K. pneumoniae AR-0003 [4]) | MIC (E. coli AR-0001 [5]) | MIC (A. baumannii AR-0273; [11]) | MIC (E. faecalis AR-0671; [12]) | MIC (P. aeruginosa AR-1114 [6]) | post-treatment viability (MTT assay) (FaDu cells) | minimal inhibitory concentration (MIC) E. faecalis AR-0671 (E. faecalis AR-0671; CAMHB) | minimal inhibitory concentration (MIC) K. pneumoniae AR-0003 (K. pneumoniae AR-0003 [1]; KPC-3, CAMHB) | minimal inhibitory concentration (MIC) A. baumannii AR-0273 (A. baumannii AR-0273; OXA-23, CAMHB) | minimal inhibitory concentration (MIC) P. aeruginosa AR-1114 (P. aeruginosa AR-1114 [2]; IMP-15, CAMHB) | minimal inhibitory concentration (MIC) E. coli AR-0001 (E. coli AR-0001 [3]; multidrug-resistant, KPC-3, CAMHB) |
| --- | --- | --- | --- | --- | --- | --- | --- | --- | --- | --- | --- | --- | --- | --- | --- | --- | --- | --- |
| O=C(CCN(CCC(=O)NN=Cc1ccc([N+](=O)[O-])s1)c1cccc(O)c1)NN=Cc1ccc([N+](=O)[O-])s1 [Compound 16, 3,3′-((3-Hydroxyphenyl)azanediyl)bis(N′-((5-nitrothiophen-2-yl)methylene)propanehydrazide)] | 1 µg/mL (≈ 1.79 µM) | > 64 µg/mL | > 64 µg/mL | > 64 µg/mL | 32 µg/mL (≈ 57.2 µM) | 4 µg/mL (≈ 7.15 µM) |  |  |  |  |  |  |  |  |  |  |  |  |
| Cc1ccc(C)n1NC(=O)CCN(CCC(=O)Nn1c(C)ccc1C)c1cccc(O)c1 [Compound 23, 3,3′-((3-Hydroxyphenyl)azanediyl)bis(N-(2,5-dimethyl-1H-pyrrol-1-yl)propanamide)] |  |  |  |  |  |  | 64 µg/mL (≈ 146 µM) | > 64 µg/mL | > 64 µg/mL | > 64 µg/mL | > 64 µg/mL | > 64 µg/mL | reduced viability |  |  |  |  |  |
| CN(C)c1ccc(/C=N/NC(=O)CCN(CCC(=O)N/N=C/c2ccc(N(C)C)cc2)c2cccc(O)c2)cc1 [Compound 12] |  |  |  |  |  |  | 64 µg/mL (≈ 118 µM) | 64 µg/mL (≈ 118 µM) | > 64 µg/mL | 64 µg/mL (≈ 118 µM) | > 64 µg/mL | 64 µg/mL (≈ 118 µM) | enhanced cytotoxic effects |  |  |  |  |  |
| COC(=O)CCN(CCC(=O)OC)c1cccc(O)c1 [Compound 3, Dimethyl 3,3′-((3-hydroxyphenyl)azanediyl)dipropionate] |  |  |  |  |  |  | > 64 µg/mL | > 64 µg/mL | 32 µg/mL (≈ 114 µM) | > 64 µg/mL | > 64 µg/mL | > 64 µg/mL | minimal cytotoxicity |  |  |  |  |  |
| Cc1cc(C)n(C(=O)CCN(CCC(=O)n2nc(C)cc2C)c2cccc(O)c2)n1 [Compound 24, 3,3′-((3-Hydroxyphenyl)azanediyl)bis(1-(3,5-dimethyl-1H-pyrazol-1-yl)propan-1-one)] |  |  |  |  |  |  | > 64 µg/mL | > 64 µg/mL | > 64 µg/mL | > 64 µg/mL | > 64 µg/mL | > 64 µg/mL | reduced viability |  |  |  |  |  |
| O=C(CCN(CCC(=O)NN=Cc1ccc([N+](=O)[O-])cc1)c1cccc(O)c1)NN=Cc1ccc([N+](=O)[O-])cc1 [Compound 10, 3,3′-((3-Hydroxyphenyl)azanediyl)bis(N′-(4-nitrobenzylidene)propanehydrazide)] | 4 µg/mL (≈ 7.31 µM) | > 64 µg/mL | > 64 µg/mL | > 64 µg/mL | > 64 µg/mL | 16 µg/mL (≈ 29.2 µM) |  |  |  |  |  |  |  |  |  |  |  |  |
| O=C(CCN(CCC(=O)N/N=C/c1ccco1)c1cccc(O)c1)N/N=C/c1ccco1 [Compound 15] |  |  |  |  |  |  | > 64 µg/mL | > 64 µg/mL | > 64 µg/mL | 64 µg/mL (≈ 146 µM) | > 64 µg/mL | 64 µg/mL (≈ 146 µM) | enhanced cytotoxic effects |  |  |  |  |  |
| C[C@@H](O)[C@H]1C(=O)N2C(C(=O)O)=C(S[C@@H]3CN[C@H](C(=O)N(C)C)C3)[C@H](C)[C@H]12 [Meropenem, meropenem, reference compound] |  |  |  |  |  |  | 2 µg/mL (≈ 5.22 µM) | 64 µg/mL (≈ 167 µM) | 8 µg/mL (≈ 20.9 µM) | > 64 µg/mL | 2 µg/mL (≈ 5.22 µM) | 32 µg/mL (≈ 83.4 µM) |  |  |  |  |  |  |
| O=C(CCN(CCC(=O)N/N=C/c1ccc([N+](=O)[O-])o1)c1cccc(O)c1)N/N=C/c1ccc([N+](=O)[O-])o1 [Compound 17] | 16 µg/mL (≈ 30.3 µM) | > 64 µg/mL | > 64 µg/mL | > 64 µg/mL | > 64 µg/mL | > 64 µg/mL |  |  |  |  |  |  |  | >64 µg/mL |  |  |  |  |
| NNC(=O)CCN(CCC(=O)NN)c1cccc(O)c1 [Compound 4, 3,3′-((3-Hydroxyphenyl)azanediyl)di(propanehydrazide)] |  |  |  |  |  |  | 8 µg/mL (≈ 28.4 µM) | > 64 µg/mL | > 64 µg/mL | > 64 µg/mL | > 64 µg/mL | > 64 µg/mL | moderate decrease in viability | >64 µg/mL | >64 µg/mL | >64 µg/mL | >64 µg/mL | >64 µg/mL |
